# Data: US9382255B2, “Substituted pyrrolopyrimidinylamino-benzothiazolones as MKNK kinase inhibitors” (BAYER PHARMA AKTIENGESELLSCHAFT, priority 2012, dated 2016)
# Biological target: T1, human full-length MKNK1 (Homo sapiens, UniProt Q9BUB5, T385D)
# T1 construct: GST (N); purchased Carna Biosciences 02-145; host or cells: insect cells (baculovirus expression system)
# Assay: MKNK1 kinase high ATP assay (TR-FRET)
# Type: biochemical
# Settings: high ATP (2 mM final), 15 min preincubation with enzyme, GST-MKNK1 (T344D)
# Protocol: MKNK1 Kinase High ATP Assay
# MKNK1-inhibitory activity at high ATP of compounds of the present invention after their preincubation with MKNK1 was quantified employing the TR-FRET-based MKNK1 high ATP assay as described in the following paragraphs.
# A recombinant fusion protein of Glutathione-S-Transferase (GST, N-terminally) and human full-length MKNK1 (amino acids 1-424 and T344D of accession number BAA 19885.1), expressed in insect cells using baculovirus expression system and purified via glutathione sepharose affinity chromatography, was purchased from Carna Biosciences (product no 02-145) and used as enzyme. As substrate for the kinase reaction the biotinylated peptide biotin-Ahx-IKKRKLTRRKSLKG (C-terminus in amide form) was used, which can be purchased e.g. from the company Biosyntan (Berlin-Buch, Germany).
# For the assay 50 nL of a 100 fold concentrated solution of the test compound in DMSO was pipetted into a black low volume 384 well microtiter plate (Greiner Bio-One, Frickenhausen, Germany), 2 μL of a solution of MKNK1 in aqueous assay buffer [50 mM HEPES pH 7.5, 5 mM MgCL2, 1.0 mM dithiothreitol, 0.005% (v/v) Nonidet-P40 (Sigma)] was added and the mixture was incubated for 15 min at 22° C. to allow pre-binding of the test compounds to the enzyme before the start of the kinase reaction. Then the kinase reaction was started by the addition of 3 μL of a solution of adenosine-tri-phosphate (ATP, 3.3 mM=>final conc. in the 5 μL assay volume is 2 mM) and substrate (0.1 μM=>final conc. in the 5 μL assay volume is 0.06 μM) in assay buffer and the resulting mixture was incubated for a reaction time of 30 min at 22° C. The concentration of MKNK1 was adjusted depending of the activity of the enzyme lot and was chosen appropriate to have the assay in the linear range, typical concentrations were in the range of 0.003 μg/mL. The reaction was stopped by the addition of 5 μL of a solution of TR-FRET detection reagents (5 nM streptavidine-XL665 [Cisbio Bioassays, Codolet, France] and 1 nM anti-ribosomal protein S6 (pSer236)-antibody from Invitrogen [#44921G] and 1 nM LANCE EU-W1024 Labeled ProteinG [Perkin-Elmer, product no. AD0071]) in an aqueous EDTA-solution (100 mM EDTA, 0.1% (w/v) bovine serum albumin in 50 mM HEPES pH 7.5).
# The resulting mixture was incubated for 1 h at 22° C. to allow the formation of complex between the phosphorylated biotinylated peptide and the detection reagents. Subsequently the amount of phosphorylated substrate was evaluated by measurement of the resonance energy transfer from the Eu-chelate to the streptavidine-XL. Therefore, the fluorescence emissions at 620 nm and 665 nm after excitation at 350 nm were measured in a TR-FRET reader, e.g. a Rubystar (BMG Labtechnologies, Offenburg, Germany) or a Viewlux (Perkin-Elmer). The ratio of the emissions at 665 nm and at […] was taken as the measure for the amount of phosphorylated substrate. The data were normalised (enzyme reaction without inhibitor=0% inhibition, all other assay components but no enzyme=100% inhibition).
# T1 sequence (Q9BUB5 1-424 isoform Q9BUB5-2 T344D): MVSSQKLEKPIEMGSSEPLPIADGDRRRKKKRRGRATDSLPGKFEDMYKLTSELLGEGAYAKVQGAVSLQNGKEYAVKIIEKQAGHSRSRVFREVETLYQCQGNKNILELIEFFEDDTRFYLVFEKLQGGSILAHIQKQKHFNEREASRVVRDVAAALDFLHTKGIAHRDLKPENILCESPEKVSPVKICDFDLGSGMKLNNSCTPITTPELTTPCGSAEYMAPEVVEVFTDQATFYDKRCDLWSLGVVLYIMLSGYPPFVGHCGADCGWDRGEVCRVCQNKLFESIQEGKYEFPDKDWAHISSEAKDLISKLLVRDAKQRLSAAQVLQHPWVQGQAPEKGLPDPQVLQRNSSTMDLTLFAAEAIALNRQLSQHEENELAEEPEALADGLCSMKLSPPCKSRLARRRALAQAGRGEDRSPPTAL
row,Structure (SMILES),IC50 [nM]
1,"O=C(c1[nH]c2ncnc(Nc3ccc4[nH]c(=O)sc4c3)c2c1Br)N1CCCCC1 [Example 33, 6-{[5-Bromo-6-(piperidin-1-ylcarbonyl)-7H-pyrrolo[2,3-d]pyrimidin-4-yl]amino}-1,3-benzothiazol-2(3H)-one]",24
2,C[C@@H]1COCCN1C(=O)c1cc2c(Nc3ccc4[nH]c(=O)sc4c3)ncnc2[nH]1 [Example 34],39
3,C[C@H]1COCCN1C(=O)c1cc2c(Nc3ccc4[nH]c(=O)sc4c3)ncnc2[nH]1 [Example 35],47
4,"O=C(c1cc2c(Nc3ccc4[nH]c(=O)sc4c3)ncnc2[nH]1)N1CCCCC1 [Example 36, 6-{[6-(Piperidin-1-ylcarbonyl)-7H-pyrrolo[2,3-d]pyrimidin-4-yl]amino}-1,3-benzothiazol-2(3H)-one]",14
